{"source": "paper PMC6727405", "about": "“Variation in the metabolites and α-glucosidase inhibitory activity of Cosmos caudatus at different growth stages” (BMC Complementary and Alternative Medicine, 2019)", "target": "T1, α-glucosidase type 1 from S. cerevisiae (Sigma G5003)", "T1 construct": "gene MAL12; commercial enzyme preparation from yeast (Sigma-Aldrich)", "experiment": "4-nitrophenyl alpha-D-glucopyranoside hydrolysis, absorbance […] nm", "type": "biochemical, Saccharomyces cerevisiae", "conditions": "PNPG substrate; phosphate buffer pH 6.5; room temperature; 5 min preincubation; positive control"}
{"smiles": "O=c1c(O)c(-c2ccc(O)c(O)c2)oc2cc(O)cc(O)c12", "note": "[Quercetin]", "values": [{"measurement": "α-glucosidase inhibitory activity, IC50 (μg mL^- 1)", "value": "110.50 ± 4.30", "unit": "µg/mL"}]}
